The values below come from article PMC5084761, “Crisaborole Topical Ointment, 2% in Patients Ages 2 to 17 Years with Atopic Dermatitis: A Phase 1b, Open‐Label, Maximal‐Use Systemic Exposure Study” (Pediatric Dermatology, 2016).

Molecules are shown by their SMILES. Like-named read-outs stand apart in the source and are kept apart here.

For series [1] the following is noted: in vivo.
Text: (§1) This was a phase 1b, multicenter, open‐label, maximal‐use study of crisaborole topical ointment, 2% applied twice daily (BID). The study included a PK and safety phase (dose application in clinic from day 1 through the morning dose on day 9) and a non‐PK safety phase (at‐home dose application from the evening dose on day 9 through day 28). […] The primary objective was to evaluate the systemic exposure, PK, and safety of crisaborole topical ointment, 2% when applied under maximal‐use conditions in children and adolescents 2 to 17 years of age.
(§2) Crisaborole topical ointment, 2% was applied BID to all treatable AD‐affected areas at an intended dose of 3 mg/cm^2. The per‐application dosage was calculated in grams at baseline for each patient based on total body surface area (BSA) and treatable percentage of BSA (percentage of AD‐involved skin excluding scalp and venous access areas). During the PK phase, the per‐application dosage remained fixed at the baseline level and was applied BID, with the evening application occurring 8 to 12 hours after the morning application.
(§3) The primary study endpoints were PK and safety of crisaborole topical ointment, 2% under maximal‐use conditions. PK profiles were developed for crisaborole and its major oxidative metabolites AN7602 and AN8323 based on plasma samples obtained on days 1 and 8. Calculated PK parameters included area under the curve (AUC), maximum plasma concentration (C max), time to C max (T max), and terminal half‐life (t 1/2), assessed on days 1 and 8.
(§4) Plasma PK samples were evaluated for crisaborole, AN7602, and AN8323 using a validated high‐performance liquid chromatography tandem mass spectrometry assay and analyzed using analysis of variance (ANOVA). Descriptive PK parameters were determined using standard noncompartmental methods based on concentration‐versus‐time curves for each patient.
(§5) If no statistically significant differences were observed using this model, the PK analysis was performed for all study patients.
A short description of series [2]: Plasma pharmacokinetics after topical application of crisaborole topical ointment, 2% BID under maximal-use conditions (HPLC tandem mass spectrometry, noncompartmental). The conditions noted are these: for Cmax: 3 mg/cm^2, C max.
Text: as §1, §2, §3, §4, §5
Series [3] has as its system children and adolescents with mild to moderate AD. Briefly: Efficacy: ISGA, treatment success, AD signs and symptoms, treatable percentage of BSA. The series is classed as in vivo, human (patients ages 2 to 17 years). To be noted: for Percentage change from baseline in treatable percentage of BSA, mean ± SD: after 4 wks. As to the method:
Secondary assessments included treatment success, defined as an Investigator Static Global Assessment (ISGA) score of 1 or less (clear or almost clear) with a two‐grade improvement or more from baseline. The proportion of patients achieving an ISGA of 0 (clear) or 1 (almost clear) was also assessed. Improvement from baseline in AD signs and symptoms of erythema, excoriation, exudation, lichenification, and pruritus was evaluated using a 4‐point scale ranging from 0 (none) to 3 (severe). Efficacy assessments were conducted at baseline and days 5, 8, 15, 22, and 29. Change from baseline in treatable percentage of BSA was assessed at day 29 and included all AD lesions identified at baseline.

As to `N#Cc1ccc(Oc2ccc(O)c(CO)c2)cc1` [AN7602], the “systemic exposure (in words)” value in series [1] is listed as “minimal”.

As a reminder, the Tmax is the time at which the peak concentration occurs. As usually defined, the AUC(0-t) is the area under the concentration-time curve up to a stated or last time point. A low value points to less exposure. A word on the Cmax: it is the peak of the concentration-time curve. Turning to `N#Cc1ccc(Oc2ccc3c(c2)COB3O)cc1` [Crisaborole, crisaborole], the Tmax in series [2] (human, plasma, topical, 3 mg/cm^2) was 3 h. Further, the AUC(0-t) in series [2] (human, plasma, topical, 3 mg/cm^2, AUC0–12, mean ± SD, plasma, day 1, all patients (n = 32)) worked out at 759 ± 730 ng·h/mL; in series [2] (human, plasma, topical, 3 mg/cm^2, AUC0–12, mean ± SD, plasma, day 8, all patients (n = 32)) it was 949 ± 1240 ng·h/mL; in series [2] (human, plasma, topical, 3 mg/cm^2, AUC0–24, mean ± SD, plasma, day 1, all patients (n = 29)), 833 ± 694 ng·h/mL; in series [2] (human, plasma, topical, 3 mg/cm^2, AUC0–24, mean ± SD, plasma, day 8, all patients (n = 32)), 1320 ± 1330 ng·h/mL; in series [2] (human, plasma, topical, 3 mg/cm^2, AUC0–T, mean ± SD, plasma, day 1, all patients (n = 34)), 863 ± 759 ng·h/mL; in series [2] (human, plasma, topical, 3 mg/cm^2, AUC0–T, mean ± SD, plasma, day 8, all patients (n = 33)), 1320 ± 1310 ng·h/mL. In addition, the Cmax in series [2] (human, plasma, topical, mean ± SD, plasma, day 1, all patients (n = 34)) is 111 ± 113 ng/mL; in series [2] (human, plasma, topical, mean ± SD, plasma, day 8, all patients (n = 33)), 127 ± 196 ng/mL. Also, the “systemic exposure (in words)” value in series [2] (maximal-use conditions, increased with treatable percentage of BSA) is recorded as “minimal”. Further, the “systemic accumulation in plasma (in words)” value in series [2] (over 8 days of dosing) is given as “minimal systemic accumulation”. Further, the “time by which steady state was reached” value in series [2] (plasma, BID dosing) was at most 8 days. In addition, the “T max, median (range)” value in series [2] (plasma, day 1, all patients (n = 34), ointment 2% at 3 mg/cm^2) was 3.00 (3–12) hours. The “Percentage change from baseline in treatable percentage of BSA, mean ± SD” value in series [3] (cohort 1) is recorded as −86.6 ± 18.6 percentage; in series [3] (cohort 2) it was −72.8 ± 24.4 percentage; in series [3] (cohort 3), −73.0 ± 21.7 percentage; in series [3] (total (N = 34)) it was −77.7 ± 22.1 percentage. Besides, the “Day 29 treatable percentage of BSA, mean ± SD (range)” value in series [3] (cohort 1, ages 12–17 yrs (n = 12), baseline 35.8 ± 11.3) is recorded as 5.7 ± 8.6 (0–29) percentage of BSA; in series [3] (cohort 2, ages 6–11 yrs (n = 12), baseline 54.9 ± 19.3) it was 16.3 ± 14.5 (0–40) percentage of BSA; in series [3] (cohort 3, ages 2–5 yrs (n = 10), baseline 56.9 ± 23.0), 18.6 ± 18.1 (0–46) percentage of BSA; in series [3] (total (N = 34), baseline 48.7 ± 20.2), 13.2 ± 14.7 (0–46) percentage of BSA. Also, the “reduction of the mean percentage of skin with AD lesions” value in series [3] (overall, as summarised in discussion) is given as ~ 75%.
